The values below come from patent US9265789B2, “Targeting CLPTM1L by RNA interference for treatment and prevention of cancer” (The Medical College of Wisconsin, Inc., priority 2013, dated 2016).

Series [1] has as its system oncogenic K-Ras driven lung tumors. The series is described as follows: shRNA/K-Ras LSL-G12D/+ mouse model of lung tumorigenesis. Type of series: in vivo. As to conditions: for inhibition of tumor number / inhibition of tumor load: vs scrambled shRNA. How it is done: Mouse experiments were conducted as described by DuPage et al., Nat. Protoc. 4:1064 (2009), with the following modifications. pLKO.1 empty shRNA vector was obtained from Open Biosystems (Foster City, Calif.). Short hairpin inserts were designed to specifically target transcripts. Oligos were ordered from IDT (Coralville, Iowa). Complimentary oligos were heated to 95° C., cooled to room temperature overnight and ligated into digested pLKO.1. Validated constructs used in mouse experiments had the following short-hairpin sequences:
Vectors were modified by replacing the PGK promoter and puromycin resistance orf with the CMV promoter driving expression of CRE-GFP. CMV promoter was sub-cloned from pLenti CMV GFP Puro plasmid #17448 (Addgene) and CRE-GFP was sub-cloned from pCAG:CRE-GFP plasmid #13776 (Addgene). Virus was packaged in 293T cells and functionally titered by infecting 3TZ cells (LSL-LacZ), which express LacZ upon Cre recombinase activation. Mice were anesthetized with 200 μL Avertin ([…]). 10^^4 or 10^^3 active virus particles in 50 μl of phosphate buffered saline was delivered via intratracheal intubation using a 22-gauge IV catheter under general anesthesia to 10 transgenic mice per group (LSL-K-RasG12D (Mouse Models of Human Cancers Consortium (MMHCC) Strain 01XJ6, Jackson Laboratory #008179 (B6), #008180 (129)). […] The thoracic cavity was surgically opened to expose the lungs. The trachea was cannulated with a 22G catheter and lungs were inflated with Tellyesniczky's solution (70% ethanol, 2% formaldehyde, and 5% acetic acid) at 25 cm of pressure by gravity. Lungs were fixed overnight and the solution was exchanged to 70% ethanol the next day. Lungs were photographed, lobes were separated and cleaned. Tumors were counted and measured with digital calipers. A cutoff for visible tumors of 0.2 mm diameter was used. Tumor volume was determined by the following formula: A=4/3πr^3. P-values were determined using a two-tailed Student's T-Test.

In series [2] the test system is Spon8 mouse lung tumor cells. The series is described as follows: Viability assay (MTS) after cisplatin treatment. In kind it is cell-based. Conditions: 20 μM cisplatin for 48 hours; compared to vector and sh1; p=9.6E-6. The protocol: Cells stably expressing shRNA vectors as described above were seeded onto 12-well tissue culture dishes at equal densities of approximately 50% in triplicate. After attachment overnight followed by 48 hours of treatment with the indicated concentrations of cisplatin (Sigma, St. Louis, Mo.) dissolved in media. DMSO concentrations in culture media were kept consistent and were at or below 0.08%. Cell viability was measured by Cell Titer 96 Aqueous One Solution Cell Proliferation Assay (MTS) in triplicate. P-values were determined by one-tailed Student's T-Test.

For series [3], the system named is Ras transformed 3T3 cells. In words: Soft agar anchorage independent growth assay. In kind it is cell-based, mouse. How it is done:
(§1) NIH3T3 cells acquired within the last 6 months from ATCC were cultured in DMEM 10% FBS to 80% confluence before co-transfecting with the indicated expression and shRNA vectors using Lipofectamine LTX (Invitrogen, Carlsbad, Calif.). Cells were split, allowed to attach and placed on puromycin selection for 3 days or until mock transfected cells were dead. Cells were plated at the indicated densities and fed as needed. For whole plate staining, cells were fixed in cold methanol and stained with crystal violet. For anchorage independent growth, cell were suspended in 0.4% agarose in complete growth media and plate over 0.8% bottom agar at 10,000 cells per well (H-Ras) or 20,000 cells per well (K-Ras) of a six-well tissue culture dish in triplicate. Cells were fed twice a week over 4 weeks in culture, and colonies were stained using cell staining reagent and protocol from Millipore's Cell Transformation Detection Assay. Images of wells were captured and analyzed by Image J software to count colonies. P-values were determined using a two-tailed Student's T-Test.

Series [4] deals with phosphorylated (T308) Akt. In words: Western blotting for phosphorylated (T308) Akt in NIH3T3 cells with K-RasV12 expression. In kind it is cell-based, mouse. As to conditions: NIH3T3 cells expressing K-RasV12, CLPTM1L stably depleted. How it is done: (§2) The indicated cell lines were treated with cisplatin at the indicated concentrations on 6-well plates for 72 hours. Cells were lysed with 100 μl of 1× NP40 lysis buffer containing proteinase inhibitors, sheared 10 times with a 28 gauge needle, spun at 16,000×g for 30 minutes, normalized by protein concentration as determined by the Bradford method, and the supernatant boiled for 5 minutes. 20 μl of normalized lysate was resolved by SDS-PAGE and immunoblotting analyzed with indicated antibodies. […] Quantitation of Western analyses of three independent cultures was done using Image J software available online from the National Institutes of Heath at rsbweb.nih.gov on the World Wide Web.
(§3) NIH3T3 cells acquired within the last 6 months from ATCC were cultured in DMEM 10% FBS to 80% confluence before co-transfecting with the indicated expression and shRNA vectors using Lipofectamine LTX (Invitrogen, Carlsbad, Calif.). […] Images of wells were captured and analyzed by Image J software to count colonies. P-values were determined using a two-tailed Student's T-Test.

For the next series, the system named is CLPTM1L transcript. The series is described as follows: CLPTM1L transcript knockdown by RT-quantitative real-time PCR in Spon8 cells. Type of series: cell-based. As to conditions: Spon8 mouse lung tumor cells; qPCR normalized to beta-Actin. How it is done: Spon8 cells were cultured in RPMI1640 plus 2% FBS (Invitrogen, Carlsbad, Calif.). Cells were transduced with lentiviral short-hairpin RNA (shRNA) vectors based on the pLKO.1 vector and designed to specifically target human CLPTM1L transcript (Sigma, St. Louis). Empty vector or vector knocking down CLPTM1L transcript were first packaged in 293T cells (Orbigen, San Diego, Calif.) by transfection with helper plasmids using Lipofectamine LTX (Invitrogen, Carlsbad, Calif.) and then transduced into Spon 8 cells with 8 μg/ml Polybrene (Sigma, St. Louis, Mo.). Media was replaced 24 hours after transduction, and cells were split 1:4 48 hours after transduction. […]
Patient matched tumor and tumor-adjacent normal RNA samples were obtained from the Tissue Procurement Core at Washington University in St. Louis under protocol approved by the Institutional Review Board at Washington University in St. Louis School of Medicine, Human Research Protection Office. […] Quantitative real-time PCR (qPCR) was conducted using the method as described previously (Chaparro, Wen et al. 2005). […] Quantitative RT-PCR assay was done using the SYBR Green PCR Master Mix (Applied Biosystems, Foster City, Calif.). […] Data were collected and analyzed with Stratagene Mx3000 software. […] Primer set efficiency and linearity was calculated, and normalization was performed in accordance with MIQE guidelines. […]

Series [5] has as its system Bcl-xL. In words: Western blotting for Bcl-xL in NIH3T3 cells with K-RasV12 expression. Type of series: cell-based, mouse. The protocol:
as §2, §3
In general terms: A western blot detects proteins with antibodies after separation by electrophoresis.

A further series concerns 3T3 mouse fibroblasts. In words: Transformation assay (morphology, foci) in Ras-transfected 3T3 fibroblasts. In kind it is cell-based. How it is done: as §1
Series [6] relates to Bcl-xL. In words: Bcl-xL protein accumulation by western blot in Spon8 cells. In kind it is cell-based, mouse. The protocol: The indicated cell lines were treated with cisplatin at the indicated concentrations on 6-well plates for 72 hours. Cells were lysed with 100 μl of 1× NP40 lysis buffer containing proteinase inhibitors, sheared 10 times with a 28 gauge needle, spun at 16,000×g for 30 minutes, normalized by protein concentration as determined by the Bradford method, and the supernatant boiled for 5 minutes. 20 μl of normalized lysate was resolved by SDS-PAGE and immunoblotting analyzed with indicated antibodies. The following antibodies were used: rabbit anti-CLPTM1L (Novus Biologicals, Littleton, Colo.), mouse anti-Actin (Santa Cruz Biotechnology, Santa Cruz, Calif.), mouse anti-Bcl2 clone 124 (Dako, Carpinteria, Calif.), rabbit anti-Bax #2774 (Cell Signaling, Boston, Mass.), mouse anti-p53 (Ab-1) (Oncogene, San Diego, Calif.), Bcl-xL-rabbit Bcl2L1 (AbCam, Cambridge, Mass.), rabbit anti-H-Ras (Novus Biologicals, Littleton, Colo.), mouse anti-K-Ras(BD Transduction Labs, Franklin, N.J.), anti-Akt(Cell Signaling, Boston, Mass.), antipAKT(Thr308)(Cell Signaling, Boston, Mass.), rabbit anti-PIK3C3 (Cell Signaling, Boston, Mass.), rabbit anti-BAD(AbCam, Cambridge, Mass.). Quantitation of Western analyses of three independent cultures was done using Image J software available online from the National Institutes of Heath at rsbweb.nih.gov on the World Wide Web.

A further series concerns TERT transcript. In words: TERT transcript knockdown in Spon8 cells. Conditions: Spon8 mouse lung tumor cells. Type of series: cell-based.
[7] abbreviates: high dose group 10^4 functional particles intratracheal, 24 weeks.
[8] abbreviates: low dose group 10^3 particles, 28 weeks post-infection.

For the molecule “shCLP168m: shRNA targeting CLPTM1L, mature sense strand AACTGCATCCAGCCCTATCTG (SEQ ID NO: 4), pLKO.1 lentiviral vector”, the values for the average tumor load in series [1] (setting [7]) and in series [1] (setting [8]) were 3.4 mm^3 and 0.01 mm^3, respectively. Besides, the average tumor number in [1] (setting [7]) amounted to 46 tumors per mouse; in [1] (setting [8]), 0.14 tumors. Also, the “inhibition of tumor number” value in series [1] (high dose group, p=0.02) stood at 60%; in [1] (low dose group, p<0.004) it was 98%. Also, the “inhibition of tumor load” value stood at 74% in [1] (high dose group, p=0.03) and 98% in series [1] (low dose group, p<0.002). Further, in [2], the “sensitivity to cisplatin-induced killing (MTS viability)” value was “increased sensitivity to cisplatin”. Also, the “average colonies per well in soft agar” value in series [3] (H-RasV12 expressing 3T3 cells, 10,000 cells per well, control 18 colonies, p<0.03) was “one”. In addition, the “inhibition of soft agar colony formation” value in series [3] (K-RasV12 transformed 3T3 cells, 20,000 cells per well, control 56 colonies per well, p<0.02) worked out at 47%. Moreover, in series [4], the “K-RasV12 induced elevation of phospho-Akt” value is on record as “ablated”. Further, the “knockdown of CLPTM1L at the transcript level” value in the series with CLPTM1L transcript was 80%. The “K-RasV12 induced elevation of Bcl-xL” value in the series with Bcl-xL [5] (NIH3T3 cells expressing K-RasV12, CLPTM1L stably depleted) was “ablated”. Also, the “Bcl-xL expression with loss of CLPTM1L” value with Bcl-xL [5] (NIH3T3 mouse fibroblasts, western blotting) was “decrease in Bcl-xL expression”. Besides, in the series on 3T3 mouse fibroblasts, the “transformed phenotype (foci) on stable co-transfection with H-RasV12 or K-RasV12” value was “no transformed foci were observed”. Besides, the “morphological changes with shRNA alone compared to vector controls” value in the series with 3T3 mouse fibroblasts (no Ras) is given as “did not demonstrate morphological changes”. In addition, the “Bcl-xL expression upon CLPTM1L depletion” value in the series on Bcl-xL [6] is given as “concurrently reduced”.

B1: shTERT1: lentiviral shRNA vector targeting TERT (oligos SEQ ID NO: 28/29), used as additional control (nucleic acid)
sense: CCGGAAGTCTGCCGTTGCCCAAGAGCTCGAGCTCTTGGGCAACGGCAGACTTTTTTT
antisense: AATTAAAAAAACTGCATCCAGCCCTATCTGCTCGAGCAGATAGGGCTGGATGCAGTT
Regarding B1, in [1] (setting [7]), the average tumor load came to 10.2 mm^3 and the average tumor number worked out at 122 tumors per mouse. Besides, the “tumor number and load compared with scrambled control” value in [1] (high dose group, p=0.58) was “statistically similar to the control group”. In [1] (setting [8]), this molecule displayed an average tumor load of 0.41 mm^3 and an average tumor number of 5 tumors. In addition, the “knockdown of TERT at the transcript level” value with TERT transcript came out at 50%.
